Experiment in all cases: cells
Common to all, as to type: cell-based, human

Assay [1] concerns A549. To be noted: read-out: GI50 A549 lung (+p53).
The test system of assay [2] is Hep3b. To be noted: read-out: GI50 Hep3b liver.
The test system of assay [3] is SKOV3. The note with it: read-out: GI50 SKOV3 ovary.
Assay [4] deals with SF-268. To be noted: read-out: GI50 SF-268 CNS.
Assay [5] has as its system DU-145. To be noted: read-out: GI50 DU-145 prostate.
In assay [6] the test system is NCI-H460. To be noted: read-out: GI50 NCI-H460 lung.
Assay [7] relates to HCT-15. To be noted: read-out: GI50 HCT-15 colorectal.
In assay [8] the test system is H1299. To be noted: read-out: GI50 H1299 lung (−p53).
For assay [9], the system named is MCF7. To be noted: read-out: GI50 MCF7 breast.
Assay [10] relates to HT29. The note with it: read-out: GI50 HT29 colorectal.

Results on 18 compounds are retold here after patent publication US8552176B2 (priority 2010, dated 2013).

Usually GI50 stands for the concentration at which growth is held to half of that of the control.

For the compound `CON(CCCCc1ccc(N(CCCl)CCCl)cc1)C1CC(O)C(O)C(C)O1` (mixture of isomers) [Compound 18], the GI50 stood at 2.7 ± 0.2 µM in assay [1]; 3.2 ± 0.1 µM in assay [2]; 3 ± 0.1 µM in [3]; 2.8 ± 0.1 µM in assay [4]; 4.3 ± 0.1 µM in [5]; 6.5 ± 0.4 µM in [6]. Moreover, the GI50 in assay [7] was 1.3 ± 0.1 µM; in assay [8], 1.1 ± 0.1 µM; in [9] it was 6.3 ± 0.1 µM; in [10], 2.1 ± 0.09 µM.

For `CON(CCCCc1ccc(N(CCCl)CCCl)cc1)C1OC(C)C(O)C(O)C1O` (mixture of isomers) [Compound 20], the concentration for 50% growth inhibition (GI50) amounted to 9.6 ± 0.4 µM in assay [1]; 2.6 ± 0.2 µM in assay [2]; 1.7 ± 0.1 µM in assay [3]; 1.7 ± 0.1 µM in [4]; 4.1 ± 0.9 µM in [5]; 5.9 ± 0.3 µM in [6]. In addition, the GI50 is 0.82 ± 0.07 µM in assay [7], 3.5 ± 0.2 µM in assay [8], 3 ± 0.2 µM in assay [9] and 6.7 ± 0.3 µM in [10].

For the compound `CON(CCCCc1ccc(N(CCCl)CCCl)cc1)C1OC(C)C(O)C(O)C1O` (mixture of isomers) [Compound 21], the GI50 in [1] came out at 2.2 ± 0.1 µM; in assay [2], 3 ± 0.1 µM; in assay [3], 1.8 ± 0.1 µM; in assay [4], 2 ± 0.1 µM; in assay [5] it was 3.8 ± 0.1 µM; in assay [6], 5.4 ± 0.3 µM. Also, the GI50 in assay [7] was 1.4 ± 0.1 µM; in assay [8], 1.2 ± 0.1 µM; in [9] it was 0.78 ± 0.09 µM; in assay [10] it was 2.3 ± 0.1 µM.

As for `CON(CCCCc1ccc(N(CCCl)CCCl)cc1)C1OC(C)C(OCc2ccccc2)C(OCc2ccccc2)C1OCc1ccccc1` (mixture of isomers) [Compound 22], the 50% growth inhibitory concentration (GI50) in [1] turned out to be 6.4 ± 0.2 µM; in assay [2] it was 9.5 ± 0.4 µM; in assay [3] it was 7.2 ± 0.4 µM; in [4] it was 5.7 ± 0.2 µM; in assay [5], 10 ± 0.4 µM; in [6] it was 15.8 ± 0.7 µM. Moreover, the GI50 in assay [7] stood at 4.6 ± 0.2 µM; in [8], 3.3 ± 0.2 µM; in assay [9] it was 4 ± 1 µM; in assay [10] it was 7.5 ± 0.3 µM.

Take `CON(CCCCc1ccc(N(CCCl)CCCl)cc1)C1OC(CO)C(O)C(O)C1O` (mixture of isomers) [Compound 23]: the GI50 in assay [1] was found to be 4.4 ± 0.4 µM; in [2] it was 3.6 ± 0.3 µM; in assay [3] it was 3.4 ± 0.5 µM; in assay [4], 1.9 ± 0.5 µM; in assay [5] it was 5.6 ± 0.3 µM; in [6], 9.7 ± 0.8 µM. Besides, the GI50 in assay [7] turned out to be 2.4 ± 0.1 µM; in assay [8], 1.3 ± 0.1 µM; in assay [9], 1.3 ± 0.2 µM; in assay [10], 3.3 ± 0.4 µM.

For the compound `CON(CCCCc1ccc(N(CCCl)CCCl)cc1)C1OC(CO)C(O)C(O)C1O` (mixture of isomers) [Compound 24], the GI50 in assay [1] was found to be 4.8 ± 0.4 µM; in [2], 3.8 ± 0.3 µM; in assay [3] it was 4.1 ± 0.6 µM; in assay [4], 2 ± 0.4 µM; in assay [5], 5.5 ± 0.2 µM; in [6], 10.4 ± 0.7 µM. The GI50 amounted to 2.3 ± 0.3 µM in assay [7], 1.4 ± 0.1 µM in [8], 1.3 ± 0.1 µM in assay [9] and 3.7 ± 0.5 µM in assay [10].

In the case of `CON(CCCCc1ccc(N(CCCl)CCCl)cc1)C1CC(O)C(O)C(CO)O1` (mixture of isomers) [Compound 25], the 50% growth inhibitory concentration (GI50) in assay [1] came out at 3.2 ± 0.2 µM; in [2] it was 3.3 ± 0.1 µM; in assay [3] it was 2.4 ± 0.1 µM; in assay [4], 2.2 ± 0.1 µM; in [5], 5 ± 0.7 µM; in assay [6], 6.6 ± 0.4 µM. Besides, the concentration for 50% growth inhibition (GI50) in [7] was 1.6 ± 0.1 µM; in [8], 1.5 ± 0.1 µM; in assay [9], 1.04 ± 0.08 µM; in assay [10] it was 3.5 ± 0.7 µM.

As for `CON(CCCCc1ccc(N(CCCl)CCCl)cc1)C1OC(C(=O)O)C(O)C(O)C1O` (mixture of isomers) [Compound 26], the GI50 came out at 17.1 ± 0.8 µM in assay [1]; 14.7 ± 0.8 µM in assay [2]; 12.8 ± 0.5 µM in assay [3]; 8.9 ± 0.4 µM in assay [4]; 16.3 ± 0.5 µM in assay [5]; 34 ± 2 µM in assay [6]. The GI50 stood at 8.1 ± 0.6 µM in [7], 4.9 ± 0.7 µM in assay [8], 4.5 ± 0.5 µM in [9] and 14.9 ± 0.1 µM in assay [10].

`CON(CCCCc1ccc(N(CCCl)CCCl)cc1)C1OC(CO)C(O)C(O)C1NC(C)=O` (mixture of isomers) [Compound 27]: the GI50 in assay [1] came out at 22 ± 1 µM; in [2], 11.8 ± 0.4 µM; in assay [3], 11 ± 1 µM; in assay [4] it was 4.2 ± 0.4 µM; in assay [5], 16.7 ± 0.7 µM; in assay [6] it was 42 ± 3 µM. In addition, the GI50 in assay [7] came to 19.1 ± 0.8 µM; in assay [8], 3.8 ± 0.4 µM; in [9], 4.4 ± 0.6 µM; in assay [10], 12 ± 1 µM.

Consider `CON(CCCCc1ccc(N(CCCl)CCCl)cc1)C1OC(CN)C(O)C(O)C1O` (mixture of isomers) [Compound 34], for which the GI50 in [1] was 3.7 ± 0.2 µM; in [2], 3.5 ± 0.2 µM; in [3], 2.2 ± 0.1 µM; in assay [4], 2.2 ± 0.1 µM; in assay [5] it was 2.8 ± 0.1 µM; in [6], 5 ± 0.4 µM. Besides, the 50% growth inhibitory concentration (GI50) in [7] stood at 1.3 ± 0.1 µM; in assay [8], 1.1 ± 0.1 µM; in [9] it was 3.7 ± 0.4 µM; in assay [10], 2.5 ± 0.1 µM.

Turning to `CON(CCCCc1ccc(N(CCCl)CCCl)cc1)C1OC(CO)C(O)C(O)C1O` (mixture of isomers) [Compound 40], the GI50 was found to be 3.3 ± 0.2 µM in assay [1]; 3.9 ± 0.2 µM in [2]; 2.5 ± 0.1 µM in assay [3]; 2 ± 0.1 µM in assay [4]; 4.8 ± 0.1 µM in assay [5]; 8 ± 0.7 µM in [6]. The GI50 in [7] is 0.88 ± 0.07 µM; in assay [8], 0.55 ± 0.05 µM; in [9], 3.2 ± 0.3 µM; in assay [10] it was 2.9 ± 0.1 µM.

`CON(CCCCc1ccc(N(CCCl)CCCl)cc1)C1OCC(O)C(O)C1O` (mixture of isomers) [Compound 41]: the GI50 in assay [1] was found to be 2.3 ± 0.1 µM; in assay [2], 2.5 ± 0.1 µM; in [3] it was 1.8 ± 0.1 µM; in assay [4] it was 1.6 ± 0.1 µM; in [5], 3.6 ± 0.1 µM; in assay [6], 5.2 ± 0.4 µM. Besides, the GI50 amounted to 0.79 ± 0.05 µM in [7], 0.76 ± 0.05 µM in [8], 1 ± 0.2 µM in [9] and 2 ± 0.1 µM in [10].

Turning to `CON(CCCCc1ccc(N(CCCl)CCCl)cc1)C1OCC(O)C(O)C1O` (mixture of isomers) [Compound 42], the GI50 worked out at 2.2 ± 0.1 µM in assay [1]; 3 ± 0.1 µM in assay [2]; 1.8 ± 0.1 µM in assay [3]; 1.2 ± 0.1 µM in [4]; 3.9 ± 0.1 µM in [5]; 5.8 ± 0.1 µM in assay [6]. Besides, the GI50 was 0.95 ± 0.08 µM in assay [7], 0.88 ± 0.04 µM in assay [8], 0.94 ± 0.2 µM in assay [9] and 2.4 ± 0.1 µM in assay [10].

Consider `CON(CCCCc1ccc(N(CCCl)CCCl)cc1)C1OC(CO)C(O)C(O)C1O` (mixture of isomers) [Compound 43], for which the GI50 in [1] stood at 3.5 ± 0.2 µM; in [2] it was 3.2 ± 0.2 µM; in assay [3], 2.3 ± 0.1 µM; in assay [4] it was 1.8 ± 0.1 µM; in [5] it was 5.1 ± 0.2 µM; in assay [6], 7.8 ± 0.7 µM. For the same compound, the GI50 in [7] was 1.9 ± 0.2 µM; in assay [8], 1.01 ± 0.07 µM; in assay [9], 1.9 ± 0.1 µM; in assay [10], 2.6 ± 0.2 µM.

As to `CON(CCCCc1ccc(N(CCCl)CCCl)cc1)C1OC(CO)C(O)C(O)C1O` (mixture of isomers) [Compound 44], the GI50 in assay [1] worked out at 4.1 ± 0.2 µM; in assay [2], 3.7 ± 0.2 µM; in [3], 2.9 ± 0.1 µM; in [4], 2 ± 0.1 µM; in assay [5], 4.9 ± 0.1 µM; in [6] it was 9.8 ± 0.9 µM. Also, the GI50 came out at 2.2 ± 0.1 µM in assay [7], 1.2 ± 0.1 µM in [8], 2.2 ± 0.2 µM in assay [9] and 3.4 ± 0.2 µM in assay [10].

In the case of `CON(CCCCc1ccc(N(CCCl)CCCl)cc1)C1OC(CO)C(O)C(O)C1NC(C)=O` (mixture of isomers) [Compound 45], the GI50 in assay [1] is 21 ± 2 µM; in [2], 9.8 ± 0.7 µM; in assay [3], 10.1 ± 0.9 µM; in assay [4], 3.4 ± 0.2 µM; in assay [5], 16 ± 1 µM; in assay [6], 33.3 ± 0.5 µM. Further, the GI50 in [7] came out at 22 ± 2 µM; in assay [8], 2.7 ± 0.2 µM; in assay [9] it was 9 ± 1 µM; in assay [10], 8.7 ± 0.7 µM.

As for `CON(CCCCc1ccc(N(CCCl)CCCl)cc1)C1OC(C)C(O)C(O)C1O` (mixture of isomers) [Compound 51], the GI50 in assay [1] amounted to 2.5 ± 0.1 µM; in assay [2] it was 2.6 ± 0.1 µM; in assay [3], 2 ± 0.1 µM; in assay [4], 1.9 ± 0.1 µM; in [5], 4.2 ± 0.1 µM; in assay [6] it was 5.3 ± 0.4 µM. Moreover, the GI50 in assay [7] came to 2 ± 0.1 µM; in assay [8], 3.7 ± 0.3 µM; in assay [9], 2.2 ± 0.2 µM; in assay [10] it was 2.4 ± 0.1 µM.

Take `CON(CCCCc1ccc(N(CCCl)CCCl)cc1)C1CC(O)C(O)CO1` (mixture of isomers) [Compound 55]: the GI50 in assay [1] amounted to 2.6 ± 0.2 µM; in assay [2] it was 2.6 ± 0.1 µM; in assay [3], 2 ± 0.1 µM; in assay [4] it was 2.1 ± 0.1 µM; in assay [5], 4 ± 0.1 µM; in [6], 5.8 ± 0.6 µM. The GI50 in [7] stood at 2.3 ± 0.1 µM; in assay [8] it was 3.7 ± 0.2 µM; in assay [9], 0.96 ± 0.02 µM; in assay [10], 2.6 ± 0.1 µM.
